Laboratory results: patent US20240148744A1 (Celgene Corporation, priority 2021, published 2024)

Assays:
Dirofilaria immitis = test: Heartworm screen Dirofilaria immitis (stage DiMF/DiL4 not specified in the tables); type: cell-based; conditions: read-out: D. immitis Activity class
[1] = system: Onchocerca gutturosa adult male worms; test: Onchocerca gutturosa in vitro screening model: adult worm motility score and MTT/formazan viability; type: cell-based; conditions: read-out: O. gutt Activity class

Structure (SMILES) | IC50 (Dirofilaria immitis) [nM] | IC50 [1] [nM]
COc1cnc2c(NS(=O)(=O)c3ccc(C(F)(F)F)nc3)cccc2c1 [Compound 11, N-(3-meth-oxyquinolin-8-yl)-6-(trifluoro-methyl)pyr-idine-3-sulfonamide] | 500 to 5000 | 
CCn1ccnc1S(=O)(=O)Nc1cccc2c(-c3ccccc3)ccnc12 [Compound 291, 1-ethyl-N-(4-phenylquinolin-8-yl)-1H-imidazole-2-sulfonamide] | < 200 | 
CCn1ccnc1S(=O)(=O)Nc1ccc(S(C)(=O)=O)c2cccnc12 [Compound 294, 1-ethyl-N-(5-(methylsulfonyl)quinolin-8-yl)-1H-imidazole-2-sulfonamide] | 200 to 500 | 
Cc1cnc(S(=O)(=O)Nc2cccc3cccnc23)n1C [Compound 233, 1,5-dimethyl-N-(quinolin-8-yl)-1H-imidazole-2-sulfonamide] | 200 to 500 | 
CCn1ccnc1S(=O)(=O)Nc1cccc2cc(C(C)=O)cnc12 [Compound 287, N-(3-acetylquinolin-8-yl)-1-ethyl-1H-imidazole-2-sulfonamide] | 200 to 500 | 
O=S(=O)(Nc1ccc(-c2ccc(F)cc2)c2cccnc12)c1nccn1CC(F)(F)F [Compound 296, N-(5-(4-fluorophenyl)quinolin-8-yl)-1-(2,2,2-trifluoroethyl)-1H-imidazol-2-sulfonamide] | < 200 | 
O=S(=O)(Nc1cccc2cccnc12)c1cccnc1C(F)(F)F [Compound 146, N-(quinolin-8-yl)-2-(trifluoromethyl) pyridine-3-sulfonamide] | 500 to 5000 | 
O=S(=O)(Nc1cccc2cccnc12)c1ccc(C2CC2)nc1 [Compound 142, 6-cyclopropyl-N-(quinolin-8-yl)pyridine-3-sulfonamide] | 500 to 5000 | 
CCn1ccnc1S(=O)(=O)Nc1cccc2c(Cl)ccnc12 [Compound 85, N-(4-chloro-quinolin-8-yl)-1-ethyl-1H-imidazole-2-sulfonamide] | 500 to 5000 | 
CCn1ccnc1S(=O)(=O)Nc1cc(C(=O)c2ccccc2)cc2cccnc12 [Compound 297, N-(6-benzoylquinolin-8-yl)-1-ethyl-1H-imidazole-2-sulfonamide] | 200 to 500 | 
O=S(=O)(Nc1ccc(Oc2cccc(C(F)(F)F)c2)c2cccnc12)c1nccn1CC(F)(F)F [Compound 292, 1-(2,2,2-trifluoroethyl)-N-(5-(3-(trifluoromethyl)phenoxy)quinolin-8-yl)-1H-imidazole-2-sulfonamide] | < 200 | 
CCn1ccnc1S(=O)(=O)Nc1cccc2c(C)ccnc12 [Compound 104, 1-ethyl-N-(4-methylquin-olin-8-yl)-1H-imidazole-2-sulfonamide] | 200 to 500 | 
Cc1ccc2cccc(NS(=O)(=O)c3ncccc3C)c2n1 [Compound 67, 3-methyl-N-(2-methyl-quinolin-8-yl)pyridine-2-sulfonamide] | 500 to 5000 | 
O=S(=O)(Nc1cc(F)cc2cccnc12)c1nccn1-c1ccc(C(F)(F)F)cc1 [Compound 295, N-(6-fluoroquinolin-8-yl)-1-(4-(trifluoromethyl)phenyl)-1H-imidazole-2-sulfonamide] | < 200 | 
Cc1cnccc1S(=O)(=O)Nc1cccc2cccnc12 [Compound 149, 3-methyl-N-(quinolin-8-yl)pyridine-4-sulfonamide] | 500 to 5000 | 
O=S(=O)(Nc1cccc2cccnc12)c1cnccc1C(F)(F)F [Compound 147, N-(quinolin-8-yl)-4-(trifluoromethyl) pyridine-3-sulfonamide] | 500 to 5000 | 
Cc1cc(C(F)(F)F)ncc1S(=O)(=O)Nc1cccc2cccnc12 [Compound 166, 4-methyl-N-(quinolin-8-yl)-6-(trifluoromethyl) pyridine-3-sulfonamide] | 500 to 5000 | 
CCn1ccnc1S(=O)(=O)Nc1ccc(Br)c2cccnc12 [Compound 293, N-(5-bromoquinolin-8-yl)-1-ethyl-1H-imidazole-2-sulfonamide] | < 200 | 
O=S(=O)(Nc1cccc2cccnc12)c1ccc(C(F)(F)F)cn1 [Compound 145, N-(quinolin-8-yl)-5-(trifluoromethyl) pyridine-2-sulfonamide] | 200 to 500 | 
COc1ccnc2c(NS(=O)(=O)c3ccc(C(F)(F)F)nc3)cccc12 [Compound 10, N-(4-meth-oxyquinolin-8-yl)-6-(trifluoro-methyl)pyr-idine-3-sulfonamide] | 500 to 5000 | 
COc1ccc2cccnc2c1NS(=O)(=O)c1ccc(C)cn1 [Compound 111, N-(7-methoxy-quinolin-8-yl)-5-methylpyr-idine-2-sulfonamide] | 500 to 5000 | 
CCn1ccnc1S(=O)(=O)Nc1cccc2c(C(C)=O)ccnc12 [Compound 288, N-(4-acetylquinolin-8-yl)-1-ethyl-1H-imidazole-2-sulfonamide] | 200 to 500 | 
O=S(=O)(Nc1c(Cl)cc(F)c2cccnc12)c1ncccc1C1CC1 [Compound 140, N-(7-chloro-5-fluoroquinolin-8-yl)-3-cyclo-propylpyridine-2-sulfonamide] | 500 to 5000 | 
Cc1ccc(C(F)(F)F)nc1S(=O)(=O)Nc1cccc2cccnc12 [Compound 163, 3-methyl-N-(quinolin-8-yl)-6-(trifluoromethyl) pyridine-2-sulfonamide] | 500 to 5000 | 
CCn1ccnc1S(=O)(=O)Nc1cccc2cc(N(C)C)cnc12 [Compound 286, N-(3-(dimethylamino)quinolin-8-yl)-1-ethyl-1H-imidazole-2-sulfonamide] | 200 to 500 | 

Structure (SMILES) | IC50 (Dirofilaria immitis) [nM] | IC50 [1] [nM]
Cc1cc(C)c(S(=O)(=O)Nc2cccc3cccnc23)cn1 [Compound 164, 4,6-dimethyl-N-(quinolin-8-yl)pyridine-3-sulfonamide] | 500 to 5000 | 
Cc1ccccc1S(=O)(=O)Nc1cccc2cccnc12 [Compound 266, 2-methyl-N-(quinolin-8-yl)benzenesulfon-amide] | 500 to 5000 | 
Cc1ccnc2c(NS(=O)(=O)c3ccc(C(F)(F)F)nc3)cccc12 [Compound 8, N-(4-methyl-quinolin-8-yl)-6-(trifluoro-methyl)pyr-idine-3-sulfon-amide] | 200 to 500 | 
O=S(=O)(Nc1ccc(C(F)(F)F)c2cccnc12)c1nccn1-c1ccccc1 [Compound 289, 1-phenyl-N-(5-(trifluoromethyl)quinolin-8-yl)-1H-imidazole-2-sulfonamide] | < 200 | 
O=S(=O)(Nc1ccnc2cccnc12)c1ccccn1 [Compound 203, N-(1,5-naphthyridin-4-yl)pyridine-2-sulfonamide] |  | 500 to 5000
N#Cc1ccccc1S(=O)(=O)Nc1cccc2cccnc12 [Compound 249, 2-cyano-N-(quinolin-8-yl)benzene-sulfonamide] |  | 200 to 500
Cc1ccc(NS(=O)(=O)c2ccco2)c2ncccc12 [Compound 65, N-(5-methyl-quinolin-8-yl)furan-2-sulfonamide] |  | 500 to 5000
Cn1nc(N2CCOCC2)cc1S(=O)(=O)Nc1cccc2cccnc12 [Compound 192, 1-methyl-3-morpholino-N-(quinolin-8-yl)-1H-pyrazole-5-sulfonamide] |  | 500 to 5000
O=S(=O)(Nc1cccc2cccnc12)c1c[nH]c2ncccc12 [Compound 204, N-(quinolin-8-yl)-1H-pyrrolo[2,3-b]pyridine-3-sulfonamide] |  | 500 to 5000
Cc1cccnc1S(=O)(=O)Nc1cccc2c1CN(C1CC1)CC2 [Compound 36, N-(2-cyclo-propyl-1,2,3,4-tetra-hydroisoquin-olin-8-yl)-3-methylpyr-idine-2-sulfonamide] |  | 500 to 5000
Cc1ccc(S(=O)(=O)Nc2cc(C)cc3cccnc23)cc1 [Compound 93, 4-methyl-N-(6-methyl-quinolin-8-yl)benzene-sulfonamide] |  | 200 to 500
Cc1ccc(C(F)(F)F)c(S(=O)(=O)Nc2cccc3cccnc23)n1 [Compound 165, 6-methyl-N-(quinolin-8-yl)-3-(trifluoromethyl) pyridine-2-sulfonamide] | 200 to 500 | 
O=S(=O)(Nc1cccc2cccnc12)c1cncc(C(F)(F)F)c1 [Compound 263, N-(quinolin-8-yl)-5-(trifluoromethyl) pyridine-3-sulfonamide] | 200 to 500 | 
Cc1cccnc1S(=O)(=O)Nc1cccc2c1CN(C)C2 [Compound 51, 3-methyl-N-(2-methyl-isoindolin-4-yl)pyridine-2-sulfonamide] |  | < 200
COc1cncc(S(=O)(=O)Nc2c(Cl)ccc3cccnc23)n1 [Compound 81, N-(7-chloro-quinolin-8-yl)-6-meth-oxypyrazine-2-sulfonamide] |  | 500 to 5000
O=S(=O)(Nc1cccc2cccnc12)c1ccc(O)cn1 [Compound 218, 5-hydroxy-N-(quinolin-8-yl)pyridine-2-sulfonamide] |  | 500 to 5000
Cc1cc(C)cc(S(=O)(=O)Nc2cc(F)cc3cccnc23)c1 [Compound 91, N-(6-fluoro-quinolin-8-yl)-3,5-dimethyl-benzene-sulfonamide] |  | < 200
COc1ccc2cccnc2c1NS(=O)(=O)c1ncccc1C1CC1 [Compound 141, 3-cyclopropyl-N-(7-methoxy-quinolin-8-yl)-pyridine-2-sulfonamide] |  | < 200
Cc1cccnc1S(=O)(=O)Nc1cccc2c1CN(C)CC2 [Compound 43, 3-methyl-N-(2-methyl-1,2,3,4-tetra-hydroisoquin-olin-8-yl)pyr-idine-2-sulfonamide] |  | < 200
O=S(=O)(Nc1ccc2cccnc2c1)c1ccccn1 [Compound 262, N-(quinolin-7-yl)pyridine-2-sulfonamide] |  | 500 to 5000
N#Cc1cccc(S(=O)(=O)Nc2c(Cl)ccc3cccnc23)c1 [Compound 82, N-(7-chloro-quinolin-8-yl)-3-cyano-benzene sulfonamide] |  | 500 to 5000
O=S(=O)(Nc1cccc2cccnc12)c1ncc[nH]1 [Compound 243, N-(quinolin-8-yl)-1H-imidazole-2-sulfonamide] |  | 500 to 5000
O=S(=O)(Nc1c(Cl)ccc2cccnc12)c1ncccc1C1CC1 [Compound 69, N-(7-chloro-quinolin-8-yl)-3-cyclo-propylpyr-idine-2-sulfonamide] |  | < 200
Cc1ccnc(S(=O)(=O)Nc2cccc3cccnc23)c1 [Compound 234, 4-methyl-N-(quinolin-8-yl)pyridine-2-sulfonamide] |  | < 200
O=S(=O)(Nc1cccc2cccnc12)c1ccco1 [Compound 281, N-(quinolin-8-yl)furan-2-sulfonamide] |  | 500 to 5000
